Assay results from US5462933A, “Modified bile acid conjugates, and their use as pharmaceuticals” (Hoechst Aktiengesellschaft, priority 1989, dated 1995).
Counter-ions that a name gives are not always drawn. Like-named read-outs stand apart in the source and are kept apart here.

Target: T1, Na+-dependent bile acid transport system (Oryctolagus cuniculus, UniProt Q28727)
T1 construct: brush-border membrane vesicles from the ileum of rabbits; from tissue; host or cells: terminal ileum of male New Zealand rabbits, brush-border membrane vesicles
T1 sequence (Q28727 1-347): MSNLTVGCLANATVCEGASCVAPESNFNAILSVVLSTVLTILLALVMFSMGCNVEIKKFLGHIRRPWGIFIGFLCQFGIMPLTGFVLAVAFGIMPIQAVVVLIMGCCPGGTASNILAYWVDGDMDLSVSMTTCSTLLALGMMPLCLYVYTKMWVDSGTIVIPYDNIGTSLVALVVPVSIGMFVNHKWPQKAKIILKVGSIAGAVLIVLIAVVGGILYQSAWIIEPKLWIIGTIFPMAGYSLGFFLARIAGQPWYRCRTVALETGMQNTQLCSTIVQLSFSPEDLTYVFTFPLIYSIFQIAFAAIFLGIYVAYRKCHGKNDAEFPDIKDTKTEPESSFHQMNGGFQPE
Assay: Inhibition of Na+-dependent [3H]taurocholate absorption into brush-border membrane vesicles of the ileum
Type: biochemical, rabbit
Method: The preparation of brush-border membrane vesicles from the intestinal cells of the small intestine was carried out using the so-called Mg^2+ precipitation method. Male New Zealand rabbits (2-2.5 kg body weight) were sacrificed by intravenous injection of 0.5 ml of T-61^R. The small intestine was removed and rinsed with ice-cold physiological saline solution. The terminal 3/10 of the small intestine (measured in the oral-rectal direction, i.e. the terminal ileum, which contains the active Na^+ -dependent bile acid transport system) were used for preparation of the brush-border membrane vesicles. The intestines were frozen at -80° C. under nitrogen in plastic bags. The frozen intestines were thawed in a water bath at 30° C. in order to prepare the membrane vesicles. The mucosa was scraped off and suspended in 60 ml of ice-cold 12 mM trys/HCl buffer (pH 7.1)/300 mM mannitol, 5 mM EGTA/10 mg/l of phenylmethylsulfonyl fluoride/1 mg/l of soybean trypsin inhibitor (32 U/mg)/0.5 mg/l of bovine lung trypsin inhibitor (193 U/mg)/5 mg/l of bacitracin. After diluting to 300 ml with ice-cold distilled water, the suspension was homogenized with ice-cooling for 3 minutes at 75% of maximum power using an Ultraturrax (18 rod, IKA Werk Staufen, Federal Republic of Germany). After addition of 3 ml of 1M MgCl2 solution (final concentration 10 mM), the homogenate was allowed to stand at 0° C. for exactly 1 minute. As a result of addition of Mg^2+, the cell membranes aggregate and precipitate with the exception of the brush-border membranes. After centrifugation at 3,000×g (5,000 rpm, SS-34 rotor) for 15 minutes, the precipitate is discarded and the supernatant which contains the brush-border membranes is centrifuged at 26,700×g (15,000 rpm, SS-34 rotor) for 30 minutes. The supernatant was discarded, and the precipitate was rehomogenized in 60 ml of 12 mM tris/HCl buffer (pH 7.1)/60 mM mannitol, 5 mM EGTA using a Potter Elvejhem homogenizer (Braun Melsungen, 900 rpm, 10 strokes). After addition of 0.1 ml of 1M MgCl2 solution and an incubation time of 15 minutes at 0° C., the mixture was again centrifuged at 3,000×g for 15 minutes. The supernatant was then again centrifuged at […] (15,000 rpm, SS-34 rotor) for 30 minutes. The precipitate was taken up in 30 ml of 10 mM tris/hepes buffer (pH 7.4)/300 mM mannitol and homogeneously resuspended by 20 strokes in a Potter Elvejhem homogenizer at 1,000 rpm. After centrifugation at 48,000×g (20,000 rpm, SS-34 rotor) for 30 minutes, the precipitate was taken up in 0.5 to 2 ml of tris/hepes buffer (pH 7.4)/280 mM mannitol (final concentration 20 mg/ml) and resuspended with the aid of a tuberculin syringe using a 27 gauge needle. The vesicles were either used immediately after preparation for transport investigations or stored at -196° C. in liquid nitrogen in 4 mg portions.
The absorption of substrates into brush-border membrane vesicles was determined by means of the so-called membrane filtration technique. 10 μl of the vesicle suspension (100 μg of protein) were pipetted on the wall of a polystyrene incubation tube (11×70 mm) as a drop which contained the incubation medium together with the corresponding ligands (90 μl ). […] The incubation medium was filtered through a polyvinylidene fluoride membrane filter (SYHV LO 4NS, 0.45 μm, 4 mm .phi., Millipore, Eschborn, Federal Republic of Germany). The transport measurement was begun by mixing the vesicles with the incubation medium. […] After the desired incubation time (customarily 1 min), the transport was stopped by addition of 1 ml of ice-cold stop solution (10 mM tris/hepes, (pH 7.4)/150 mM KCl). The resulting mixture was immediately filtered off with suction in a vacuum of 25 to 35 mbar through a membrane filter made of cellulose nitrate (ME 25, 0.45 μm, 25 mm diameter, Schleicher & Schuell, Dassell, Federal Republic of Germany). The filter was subsequently washed with 5 ml of ice-cold Stop solution.

[1] = Na+-dependent transport component, 50 μM taurocholate

| Compound | IC25 [µM] | IC75 [µM] | IC50 (read-out: IC50) [µM] | IC50 [µM] | IC25 [1] [µM] | IC75 [1] [µM] |
| --- | --- | --- | --- | --- | --- | --- |
| CC(C)c1nc(-c2ccccc2)cc(-c2ccc(F)cc2)c1/C=C/[C@@H](O)C[C@@H](O)CC(=O)NCCCO[C@H]1CC[C@@]2(C)[C@@H](C1)C[C@@H](O)[C@@H]1[C@@H]2C[C@H](O)[C@]2(C)[C@@H]([C@H](C)CCC(=O)O)CC[C@@H]12 [Example 86] | 14 | 87 | 62 | – | – | – |
| CC(C)c1nc(-c2ccccc2)cc(-c2ccc(F)cc2)c1/C=C/[C@@H](O)C[C@@H](O)CC(=O)NCCO[C@H]1CC[C@@]2(C)[C@@H](C1)C[C@@H](O)[C@@H]1[C@@H]2C[C@H](O)[C@]2(C)[C@@H]([C@H](C)CCC(=O)NCCS(=O)(=O)O)CC[C@@H]12 [Example 115 (Na salt)] | 12 | 44 | 28 | – | – | – |
| CC(C)c1nc(-c2ccccc2)cc(-c2ccc(F)cc2)c1/C=C/[C@@H](O)C[C@@H](O)CC(=O)NCCO[C@H]1CC[C@@]2(C)[C@@H](C1)C[C@@H](O)[C@@H]1[C@@H]2C[C@H](O)[C@]2(C)[C@@H]([C@H](C)CCC(=O)NCC(=O)O)CC[C@@H]12 [Example 105] | 11 | 45 | 22.5 | – | – | – |
| CC(C)c1cc(-c2ccc(F)cc2)c(OC[C@@H](O)C[C@@H](O)CC(=O)NCCCO[C@H]2CC[C@@]3(C)[C@@H](C2)C[C@@H](O)[C@@H]2[C@@H]3C[C@H](O)[C@]3(C)[C@@H]([C@H](C)CCC(=O)O)CC[C@@H]23)c(C(C)C)c1 [Example 82 (Na salt)] | 17 | 80 | 48 | – | – | – |
| CC(C)c1cc(-c2ccc(F)cc2)c(OC[C@@H](O)C[C@@H](O)CC(=O)NCCO[C@H]2CC[C@@]3(C)[C@@H](C2)C[C@@H](O)[C@@H]2[C@@H]3C[C@H](O)[C@]3(C)[C@@H]([C@H](C)CCC(=O)NCC(=O)O)CC[C@@H]23)c(C(C)C)c1 [Example 101] | 19 | 68 | 40 | – | – | – |
| Cc1cc(C(=C(/C=C/[C@@H](O)C[C@@H](O)CC(=O)NCCO[C@H]2CC[C@@]3(C)[C@@H](C2)C[C@@H](O)[C@@H]2[C@@H]3C[C@H](O)[C@]3(C)[C@@H]([C@H](C)CCC(=O)O)CC[C@@H]23)C(C)C)c2ccc(F)c(C)c2)ccc1F [Example 90] | 3.8 | 27 | 12 | – | – | – |
| C[C@H](CCC(=O)NCCS(=O)(=O)O)[C@H]1CC[C@H]2[C@@H]3CC[C@@H]4C[C@H](OS(=O)(=O)O)CC[C@]4(C)[C@H]3CC[C@]12C [Taurolithocholate-3-sulfate, reference compound] | – | – | 245 | – | – | – |
| C[C@H](CCC(=O)NCC(=O)O)[C@H]1CC[C@H]2[C@@H]3[C@H](O)C[C@@H]4C[C@@H](OCCNC(=O)CCCc5ccc(N(CCCl)CCCl)cc5)CC[C@]4(C)[C@H]3C[C@H](O)[C@]12C [Example 68] | – | – | – | 89 | 60 | 250 |
| COC(=O)CC[C@@H](C)[C@H]1CC[C@H]2[C@@H]3[C@H](O)C[C@@H]4C[C@@H](OCCNC(=O)[C@@H](C)NC(=O)[C@@H](C)NC(=O)OCc5ccccc5)CC[C@]4(C)[C@H]3C[C@H](O)[C@]12C [Example 119, Z-D-Ala-D-Ala-NH--(CH2)2 --GS--OCH3] | 48 | – | 134 | – | – | – |
| CC(C)c1nc(-c2ccccc2)cc(-c2ccc(F)cc2)c1/C=C/[C@@H]1C[C@@H](O)CC(=O)O1 [Example 125, reference compound] | 12 | 104 | 46 | – | – | – |
